Where two headings read alike, the source gives them in different places.
Legend:
[1] = Diluents lowering the melting point of pelargonic acid: visual appearance (crystal/clear) of pelargonic acid/diluent blends at low temperature
[2] = Wetting/spreading of a drop on a hydrophobic polystyrene dish; assay type: physicochemical; details: in water (0.5-3.7%)
Excerpt: It was unexpectedly discovered that there is a synergy in wetting/spreading between C9 acid and phosphate ester exemplified by PE2 (C1216-30 phosphate ester). […] That is, a drop of the solution balls up with a large contact angle on the dish.

[3] = pelargonic acid 75 wt % + diluent 25 wt %
[4] = pelargonic acid 30 wt % + diluent 70 wt %
[5] = pelargonic acid 50 wt % + diluent 50 wt %
[6] = pelargonic acid 65 wt % + diluent 35 wt %
[7] = pelargonic acid 70 wt % + diluent 30 wt %
[8] = pelargonic acid 60 wt % + diluent 40 wt %
[9] = pelargonic acid 80 wt % + diluent 20 wt %

SMILES | diluent amount required to lower the melting point of pelargonic acid to 0° C. (or lower) [1] [%] | appearance at 0° C. [1, 3] | appearance at −20° C. [1, 3] | appearance at 0° C. [1, 4] | appearance at −20° C. [1, 4] | appearance at 0° C. [1, 5] | appearance at −20° C. [1, 5] | appearance at 0° C. [1, 6] | appearance at −20° C. [1, 6] | appearance at 0° C. [1, 7] | appearance at −20° C. [1, 7] | ability to wet a hydrophobic polystyrene dish [2] | appearance at 0° C. [1, 8] | appearance at −20° C. [1, 8] | appearance at 0° C. [1, 9] | appearance at −20° C. [1, 9] | appearance at 0° C. [1] | appearance at −20° C. [1]
CCCCCCC(=O)O [Heptanoic acid] | 25 | Clear | Crystal |  |  |  |  |  |  |  |  |  |  |  |  |  |  | 
C=C(C)[C@H]1CC=C(C)CC1 [d-limonene] |  | Crystal | Crystal | Clear | Clear | Clear | Crystal | Clear | Crystal | Clear | Crystal |  |  |  |  |  |  | 
CCCCCCCCC(=O)O [C9 acid, pelargonic acid] |  |  |  |  |  |  |  |  |  |  |  | not able to wet |  |  |  |  |  | 
CCCCC(CC)C(=O)O (stereo not drawn) [2-EH acid, 2-ethyhexanoic acid] | 30 |  |  | Clear | Clear | Clear | Crystal |  |  | Clear | Crystal |  | Clear | Crystal | Crystal | Crystal |  | 
COC(=O)c1ccccc1O [Methyl salicylate] | 35 | Crystal | Crystal |  |  | Clear | Crystal | Clear | Crystal | Crystal | Crystal |  |  |  |  |  |  | 
CCOP(=O)(OCC)OCC [triethylphosphate] |  |  |  |  |  |  |  |  |  |  |  |  |  |  |  |  | Clear | 
COC(=O)c1ccccc1 [Methyl benzoate] |  |  |  |  |  |  |  |  |  |  |  |  |  |  |  |  | Clear | Crystal
CCCCOC(C)=O [Butyl Acetate] |  | Clear | Crystal | Clear | Clear | Clear | Crystal | Clear | Crystal | Clear | Crystal |  |  |  |  |  |  | 
CCCCC(CC)CO (stereo not drawn) [2-EH alcohol, 2-ethylhexanol] | 30 |  |  | Clear | Clear | Clear | Crystal |  |  | Clear | Crystal |  | Clear | Crystal | Crystal | Crystal |  | 
CCCCCCCCOC(=O)C(C)O (stereo not drawn) [Octyl lactate] | 30 | Crystal | Crystal | Clear | Crystal | Clear | Crystal | Crystal | Crystal | Crystal | Crystal |  |  |  |  |  |  | 
CCCCC(=O)O [Valeric C5 acid, valeric acid] | 30 |  |  |  |  |  |  |  |  | Clear | Crystal |  |  |  |  |  |  | 
